Structures can show the parent of a compound that is named as a salt.
Legend:
[1] = tested on: white blood cell count (WBC); settings: patients; cited from earlier work
[2] = Water solubility of amonafide salts; type: physicochemical; settings: as compared to a monohydrochloride salt
Neutrophils = assay: Myelosuppression (reduction of neutrophils) by NAT-2 genotype in patients; type: in vivo, human
Method: Thirty-two (32) patients were treated amonafide dihydrochloride. Sixteen (16) were male and sixteen (16) were female. The mean age was 65 years. The dose schedule was days 1, 8, 15 and thereafter every 28 days. The dosages ranged from 300 to 500 mg/m^2 in a dose escalation studied to determine dose limiting toxicity (DLT).
Patients were genotyped to determine their NAT-2 (N-acetyl transferase) genotype. See D. W. Hein, et al., “Molecular Genetics and Epidemiology of the NAT1 and NAT2 Acetylation Polymorphisms,” Cancer Epidemiology, Biomarkers & Prevention Vol. 9, 29-42, January 2000.

Compound | effect on white blood cell count [1] | solubility in water [2] | Average % Reduction of Neutrophils (Neutrophils; I/R (Fast) genotype, 18 patients, dose 400 mg/m2) [%] | Average % Reduction of Neutrophils (Neutrophils; I/R (Fast) genotype, 18 patients, dose 400 mg/m2, listed as amonafide) [%] | Average % Reduction of Neutrophils (Neutrophils; S (Slow) genotype, 14 patients, dose 500 mg/m2) [%]
CC(=O)Nc1cc2c3c(cccc3c1)C(=O)N(CCN(C)C)C2=O [acetyl amonafide, N-acetyl amonafide] | induce leukocytopenia and, in particular, granulocytopenia | – | – | – | –
CN(C)CCN1C(=O)c2cccc3cc(N)cc(c23)C1=O [amonafide dihydrochloride, 5-amino-2-[(dimethylamine)ethyl]-1H-benz[de-]isoquinoline-1,3-(2H)-dione] | – | more soluble in water | 78 | ~80 | 55
